Laboratory results taken from patent publication US10544089B2, “Innovative preparation and crystallization of iosimenol” (OTSUKA PHARMACEUTICAL CO., LTD., priority 2015, dated 2020).

Columns and labels:
[1] = Solubility of iosimenol in organic solvents (crystallization attempts); type: physicochemical
Description: The present inventors applied crystallization methods described in literature, but this approach always failed, independently on using crude or purified iosimenol. If any solid was obtained, we usually obtained solid of gummy consistency and we never observed any purity increase.

[2] = Heat stability of iosimenol in crystallization solution (colour change, impurities); type: physicochemical; conditions: between 80-110° C.
Description: Although contrast media are relatively stable compounds, usually after a long-term exposure to heat, certain degradation may occur. The most vulnerable are amide groups and covalently bound iodine. In case of iosimenol, the acidic hydrogens on aliphatic carbon of malonyl group may cause cleavage of the bridge at higher temperature and can lead to form monomeric impurities. These all mentioned degradations are more intensive under strong acidic or strong basic conditions. Using our experience in formulation of iosimenol, we used trometamol as a buffer to control pH between 6-7 from the viewpoint of influencing of color. Ideal conditions for iosimenol crystallization are when the crystallization is performed at shortest process time at lowest possible temperature under suitable and controlled pH between 6-7 by buffer from the viewpoint of influencing of color.
Therefore, ideal conditions for crystallization are temperatures between 80-110° C., pH 6-7 and as short as possible time for crystallization.

SMILES: NC(=O)c1c(I)c(C(=O)NCC(O)CO)c(I)c(N(CC(O)CO)C(=O)CC(=O)N(CC(O)CO)c2c(I)c(C(N)=O)c(I)c(C(=O)NCC(O)CO)c2I)c1I (stereo not drawn) [iosimenol, N,N′-bis[3-carbamoyl-5-(2,3-dihydroxypropyl-carbamoyl)-2,4,6-triiodophenyl]-N,N′-bis(2,3-dihydroxypropyl)-malonamide]
- solubility in solvents ([1]; alcohols, ethers and alkoxyalcohols): practically insoluble
- solubility in aprotic solvents ([1]; aprotic solvents like dimethylformamide): extremely high solubility
- degradation on heating (impurities) [2]: no new impurities or increased level of known impurities are observed
